Laboratory results: patent publication US12583858B2 (Genentech, Inc., priority 2015, dated 2026)

molecular target: T1, TDO2 (Homo sapiens, UniProt P48775); assay: TDO2 cell assay (NFK GreenScreen, SW48 cells); assay type: cell-based; details: SW48 cells (high TDO expressing), 200 uM tryptophan, 24 hours; Table 3; read-out: TDO2 Cell Fluor EC50
T1 construct: decreased levels of NFK in SW48 cells (high TDO expressing cells)
T1 sequence (P48775 whole entry): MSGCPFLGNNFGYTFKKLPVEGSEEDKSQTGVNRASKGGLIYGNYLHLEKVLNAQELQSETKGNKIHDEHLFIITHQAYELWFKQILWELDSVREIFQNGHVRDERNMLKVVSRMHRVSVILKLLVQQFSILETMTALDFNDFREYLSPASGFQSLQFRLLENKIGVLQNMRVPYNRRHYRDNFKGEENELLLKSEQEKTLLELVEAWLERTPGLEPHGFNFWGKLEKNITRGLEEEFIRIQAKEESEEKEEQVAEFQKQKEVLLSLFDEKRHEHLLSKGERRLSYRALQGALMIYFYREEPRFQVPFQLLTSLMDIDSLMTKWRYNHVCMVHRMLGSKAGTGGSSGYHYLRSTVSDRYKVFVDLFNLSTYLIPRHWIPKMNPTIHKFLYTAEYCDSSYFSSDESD

EC50	SMILES
0.086 µM	O=S(=O)(C1CC1)N1CCC(C2c3ccccc3-c3cncn32)C(O)C1 (mixture of isomers) [Example 77b, (3S,4SR)-1-(cyclopropylsulfonyl)-4-((S)-5H-imidazo[5,1-a]isoindol-5-yl)piperidin-3-ol]
2.86 µM	OC1(C2c3ccccc3-c3cncn32)CCOCC1 (racemic) [Example 43, 4-(5H-imidazo[5,1-a]isoindol-5-yl)tetrahydro-2H-pyran-4-ol]
6.84 µM	CC(C)(O)C1c2ccccc2-c2cncn21 (racemic) [Example 44, 2-(5H-imidazo[5,1-a]isoindol-5-yl)propan-2-ol]
7.26 µM	OC1(C2c3ccccc3-c3cncn32)COC1 (racemic) [Example 48, 3-(5H-imidazo[5,1-a]isoindol-5-yl)oxetan-3-ol]
0.17 µM	OC1(C2c3ccccc3-c3cncn32)CCC(F)(F)CC1 (racemic) [Example 53, 4,4-difluoro-1-(5H-imidazo[5,1-a]isoindol-5-yl)cyclohexan-1-ol]
3.4 µM	OC1(C2c3ccccc3-c3cncn32)CC(CF)(CF)C1 (racemic) [Example 54, 3,3-bis(fluoromethyl)-1-(5H-imidazo[5,1-a]isoindol-5-yl)cyclobutan-1-ol]
1.6 µM	OC1(C2c3ccccc3-c3cncn32)CCCC1 (racemic) [Example 55, 1-(5H-imidazo[5,1-a]isoindol-5-yl)cyclopentan-1-ol]
0.89 µM	O=S1(=O)CC(C2c3ccccc3-c3cncn32)C(O)c2ccccc21 (racemic) [Example 96a, 4-hydroxy-3-(5H-imidazo[5,1-a]isoindol-5-yl)thiochromane 1,1-dioxide]
19 µM	C[C@@](O)(C1CCOCC1)[C@@H]1c2ccccc2-c2cncn21 (racemic) [Example 131a, Mixture of(S)-1-((R)-5H-imidazo[5,1-a]isoindol-5-yl)-1-(tetrahydro-2H-pyran-4-yl)ethan-1-ol and (R)-1-((S)-5H-imidazo[5,1-a]isoindol-5-yl)-1-(tetrahydro-2H-pyran-4-yl)ethan-1-ol]
0.81 µM	CC1(C)CC(O)(C2c3ccccc3-c3cncn32)C1 (racemic) [Example 147a, 1-(5H-imidazo[5,1-a]isoindol-5-yl)-3,3-dimethylcyclobutan-1-ol]
> 25 µM	O[C@@H]1CC[C@H]1[C@@H]1c2ccccc2-c2cncn21 (single isomer, unassigned) [Example 01f]
3.3 µM	OC1CCC1C1c2ccccc2-c2cncn21 (single isomer, unassigned) [Example 01g]
16 µM	OC1CCC1C1c2ccccc2-c2cncn21 (single isomer, unassigned) [Example 01h]
17 µM	OC1CCCC1C1c2ccccc2-c2cncn21 (single isomer, unassigned) [Example 02e]
0.07 µM	OC1CCCC1C1c2ccccc2-c2cncn21 (single isomer, unassigned) [Example 02f]
0.34 µM	OC1CCCC1C1c2ccccc2-c2cncn21 (single isomer, unassigned) [Example 02g]
> 25 µM	OC1CCCC1C1c2ccccc2-c2cncn21 (single isomer, unassigned) [Example 02h]
> 25 µM	OC1CCCCC1C1c2ccccc2-c2cncn21 (single isomer, unassigned) [Example 03c]
0.036 µM	OC1CCCCC1C1c2ccccc2-c2cncn21 (single isomer, unassigned) [Example 03d]

EC50	SMILES
16 µM	OC1CCCCC1C1c2ccccc2-c2cncn21 (single isomer, unassigned) [Example 03e]
0.3 µM	OC1CCCCC1C1c2ccccc2-c2cncn21 (single isomer, unassigned) [Example 03f]
1.3 µM	OC1c2cnccc2CCC1C1c2ccccc2-c2cncn21 (single isomer, unassigned) [Example 04a]
> 25 µM	OC1c2cnccc2CCC1C1c2ccccc2-c2cncn21 (single isomer, unassigned) [Example 04b]
1 µM	OC1c2cnccc2CCC1C1c2ccccc2-c2cncn21 (single isomer, unassigned) [Example 04c]
20 µM	O[C@@H]1c2cnccc2CC[C@@H]1[C@H]1c2ccccc2-c2cncn21 (single isomer, unassigned) [Example 04d]
2.3 µM	O[C@H]1c2cnccc2CC[C@@H]1[C@@H]1c2ccccc2-c2cncn21 (single isomer, unassigned) [Example 04f]
19 µM	O[C@H]1c2cnccc2CC[C@@H]1[C@@H]1c2ccccc2-c2cncn21 (single isomer, unassigned) [Example 04g]
0.13 µM	O[C@@H]1c2cnccc2CC[C@H]1[C@H]1c2ccccc2-c2cncn21 (single isomer, unassigned) [Example 04h]
0.56 µM	OC1COCCC1C1c2ccccc2-c2cncn21 (single isomer, unassigned) [Example 06g]
> 25 µM	OC1COCCC1C1c2ccccc2-c2cncn21 (single isomer, unassigned) [Example 06h]
15 µM	OC1c2cncn2CCC1C1c2ccccc2-c2cncn21 (single isomer, unassigned) [Example 07a]
> 25 µM	OC1c2cncn2CCC1C1c2ccccc2-c2cncn21 (single isomer, unassigned) [Example 07b]
2.2 µM	OC1c2cncn2CCC1C1c2ccccc2-c2cncn21 (single isomer, unassigned) [Example 07e]
> 25 µM	OC1c2cncn2CCC1C1c2ccccc2-c2cncn21 (single isomer, unassigned) [Example 07f]
0.6 µM	O[C@H]1c2ccncc2CC[C@@H]1[C@@H]1c2ccccc2-c2cncn21 (single isomer, unassigned) [Example 08b]
5.2 µM	O[C@H]1c2ccncc2CC[C@H]1[C@@H]1c2ccccc2-c2cncn21 (single isomer, unassigned) [Example 08c]
0.51 µM	O[C@@H]1c2ccncc2CC[C@@H]1[C@H]1c2ccccc2-c2cncn21 (single isomer, unassigned) [Example 08d]
0.23 µM	O[C@H]1c2ccncc2CC[C@@H]1[C@H]1c2ccccc2-c2cncn21 (single isomer, unassigned) [Example 08e]

EC50	SMILES
12 µM	O[C@@H]1c2ccncc2CC[C@H]1[C@@H]1c2ccccc2-c2cncn21 (single isomer, unassigned) [Example 08f]
8.3 µM	O[C@@H]1c2ccncc2CC[C@@H]1[C@@H]1c2ccccc2-c2cncn21 (single isomer, unassigned) [Example 08g]
0.1 µM	O[C@H]1c2ccncc2CC[C@H]1[C@H]1c2ccccc2-c2cncn21 (single isomer, unassigned) [Example 08h]
> 25 µM	CC(=O)N1CCC(C2c3ccccc3-c3cncn32)C(O)C1 (single isomer, unassigned) [Example 09a, 1-(3-hydroxy-4-(5H-imidazo[5,1-a]isoindol-5-yl)piperidin-1-yl)ethan-1-one]
3 µM	CC(=O)N1CCC(C2c3ccccc3-c3cncn32)C(O)C1 (single isomer, unassigned) [Example 09b, 1-(3-hydroxy-4-(5H-imidazo[5,1-a]isoindol-5-yl)piperidin-1-yl)ethan-1-one]
> 25 µM	CC(=O)N1CCC(C2c3ccccc3-c3cncn32)C(O)C1 (single isomer, unassigned) [Example 09c, 1-(3-hydroxy-4-(5H-imidazo[5,1-a]isoindol-5-yl)piperidin-1-yl)ethan-1-one]
> 25 µM	CC(=O)N1CCC(C2c3ccccc3-c3cncn32)C(O)C1 (single isomer, unassigned) [Example 09d, 1-(3-hydroxy-4-(5H-imidazo[5,1-a]isoindol-5-yl)piperidin-1-yl)ethan-1-one]
2.1 µM	CC(C)(C)OC(=O)N1CCC(C2c3ccccc3-c3cncn32)C(O)C1 (single isomer, unassigned) [Example 10a, tert-butyl 3-hydroxy-4-(5H-imidazo[5,1-a]isoindol-5-yl)piperidine-1-carboxylate]
> 25 µM	CC(C)(C)OC(=O)N1CCC(C2c3ccccc3-c3cncn32)C(O)C1 (single isomer, unassigned) [Example 10b, tert-butyl 3-hydroxy-4-(5H-imidazo[5,1-a]isoindol-5-yl)piperidine-1-carboxylate]
19 µM	CC(C)(C)OC(=O)N1CCC(C2c3ccccc3-c3cncn32)C(O)C1 (single isomer, unassigned) [Example 10c, tert-butyl 3-hydroxy-4-(5H-imidazo[5,1-a]isoindol-5-yl)piperidine-1-carboxylate]
> 25 µM	CC(C)(C)OC(=O)N1CCC(C2c3ccccc3-c3cncn32)C(O)C1 (single isomer, unassigned) [Example 10d, tert-butyl 3-hydroxy-4-(5H-imidazo[5,1-a]isoindol-5-yl)piperidine-1-carboxylate]
> 25 µM	CC(C)(C)OC(=O)N1CCC(O)C(C2c3ccccc3-c3cncn32)C1 (single isomer, unassigned) [Example 11c, tert-butyl 4-hydroxy-3-(5H-imidazo[5,1-a]isoindol-5-yl)piperidine-1-carboxylate]
22 µM	CC(C)(C)OC(=O)N1CCC(O)C(C2c3ccccc3-c3cncn32)C1 (single isomer, unassigned) [Example 11d, tert-butyl 4-hydroxy-3-(5H-imidazo[5,1-a]isoindol-5-yl)piperidine-1-carboxylate]
2.7 µM	CC(=O)N1CCC(O)C(C2c3ccccc3-c3cncn32)C1 (single isomer, unassigned) [Example 12a]
> 25 µM	CC(=O)N1CCC(O)C(C2c3ccccc3-c3cncn32)C1 (single isomer, unassigned) [Example 12b]
> 25 µM	CC(=O)N1CC[C@H](O)[C@@H]([C@H]2c3ccccc3-c3cncn32)C1 (single isomer, unassigned) [Example 12c]
> 25 µM	CC(=O)N1CC[C@@H](O)[C@H]([C@@H]2c3ccccc3-c3cncn32)C1 (single isomer, unassigned) [Example 12d]
0.36 µM	N#CCN1CCC(O)C(C2c3ccccc3-c3cncn32)C1 (single isomer, unassigned) [Example 14a]
